The text below walks through data of patent publication US20230108442A1, “NOVEL ANTIMALARIAL AGENT CONTAINING HETEROCYCLIC COMPOUND” (Eisai R&D Management Co., Ltd., priority 2020, published 2023).

Values joined by “and” are separate entries in the source; they are usually repeats but may differ in a detail not shown here. Equal values may be shown once.

In general, IC50 refers to the concentration needed to halve the response being measured.

Experiment [1] concerns Plasmodium falciparum strain 3D7 (chloroquine-sensitive). Put plainly: in vitro drug susceptibility test, parasite lactate dehydrogenase detection, strain 3D7. Format: cell-based. The following applies: 72 hours incubation, pLDH absorbance at 660 nm, read-out: Pf_3D7 IC50. The procedure:
(§1) Plasmodium falciparum strain 3D7 (chloroquine-sensitive) and K1 (chloroquine-resistant) were obtained from Kitasato University and used for testing antimalarial activities in vitro. The cultivation of P. falciparum was conducted according to Trager's method (Trager, W and Jensen and J., Human malaria parasites in continuous culture. Science, 193:673-677, 1976) with some modification. Precisely, parasites were kept in culture flasks with RPMI1640 medium supplemented with 10% human plasma and 2% fresh human erythrocytes and incubated at 37° C. with the gas condition of 5% CO2 and 5% 02. The parasitemia (percentage of infected erythrocytes to total erythrocytes) were kept within 0.25-10%. Culture medium were replaced and fresh erythrocytes were supplied every 2-3 days. Drug susceptibility test was conducted according to Desjardins's method (Desjardins, R. E., Canfield, C. J., Haynes, D. E. and Chulay, J. D., Quantitative assessment of antimalarial activity in vitro by a semiautomated microdilution technique. Antimicrob. Agents Chemother., 16:710-718, 1979) with some modification. The compounds I to IX and known antimalarial agents (chloroquine and artemisinin) were tested at the same time. Precisely, 199 micro L of parasite cultures (2% hematocrit and 0.75-1% parasitemia) and 1 micro L of compound solution serially diluted in DMSO were poured into every well in 96-well titer plates and final drug concentrations were set within 0.001-1 micro g/mL. The plates were kept at 37° C. with the gas condition of 5% CO2 and 5% O2 for 72 hours and then parasite growth was quantified with Makler's method to detect plasmodial lactate dehydrogenase (Makler, M. T., Rise, J. M., Williams, J. A., Bancroft, J. E., Piper, R. C., Gibbins, B. L. and Hinrichs, D. J., Parasite lactate dehydrogenase as an Assay for Plasmodium falciparum drug sensitivity. Am. J. Med. Hyg., 48:739-741, 1993) with some modification. Precisely, culture plate was kept in freezer overnight and then thawed at 37° C. to disrupt the erythrocytes and parasite cells. In the new 96-well titer plates, 100 micro L of enzyme reaction solution (110 mM Li-lactate, 0.5 mM acetylpyridine-adenine dinucleotide, 50 mM Tris (pH 7.5), 10 mM EDTA, 50 mM KCl and 15 g/L PEG6000) and 20 micro L of freeze-thaw culture were mixed in each well and then kept at room temperature for 30 minutes. The detection solution was prepared by mixing equal volume of 2 mg/mL nitro blue tetrazolium and 0.1 mg/mL phenazine ethosulfate and 20 micro L of the solution was added to each well. After the incubation at room temperature in the dark for 90 minutes, absorbance at 660 nm was analysed and IC50s were calculated from dose response curve.

Experiment [2] concerns Plasmodium falciparum strain K1 (chloroquine-resistant). The experiment is described as follows: in vitro drug susceptibility test, parasite lactate dehydrogenase detection, strain K1. As to conditions: 72 hours incubation, pLDH absorbance at 660 nm, read-out: Pf_K1 IC50. Format: cell-based. As for the experimental part:
as §1

Experiment [3] concerns Plasmodium falciparum Pf3D70087/N9. The experiment is described as follows: humanized murine malaria model, parasitemia by flow cytometry. Format: in vivo. The following applies: oral, once daily for three days (I, V) or four days (II), start 72 h post infection, read seven days post infection. The procedure: The following pharmacological tests in the humanized murine malaria model were conducted using the compounds I, II and V at The Art of Discovery S.L. (Bizkaia, Spain). Briefly, mice engrafted with human erythrocytes were intravenously infected with parasitized red blood cells 72 h before drug treatment inception. The effect of treatment on parasitemia was assessed by measuring the percentage of infected erythrocytes in peripheral blood.
Plasmodium falciparum Pf3D70087/N9, the parasite strain used in this experiment, was described in reference (1). Immunodeficient female NSG (NOD-scid IL-2Rγnull) mice were engrafted with human erythrocytes to have a minimum of 40% of human erythrocytes circulating in peripheral blood during the whole experiment. Each mouse was intraperitoneally (i.p.) or intravenously (i.v.) inoculated with 1 mL (i.p.) or 0.7 mL (i.v.) of 50%-75% hematocrit erythrocyte suspension in RPMI1640 medium, 25% (vol/vol) decomplemented human serum, 3.1 mM hypoxanthine. Then humanized NSG mice were infected with peripheral blood from donor mice by intravenous injection of 0.3 mL of 1.17×10^8 parasitized-erythrocytes per ml suspension. Drug treatment was started after 72-h post infection. In the treatment, 10 ml/kg of compound solution were orally administered to each mouse, once daily for three or four days (three days for compounds I and V, four days for compound II, respectively). An analysis of the parasite population in peripheral blood was performed by flow cytometry as shown in reference (2) and the outcome was shown as the parasitemia expressed as the % of parasitized erythrocytes to the total erythrocytes in peripheral blood. Briefly, serial 2 micro L blood samples of peripheral blood from infected mice were stained with TER-119-Phycoerythrine (marker of murine erythrocytes) and SYTO-16 (nucleic acid dye) and then analyzed by flow cytometry. The therapeutic efficacies were expressed as ED90, the daily doses that reduce by 90% parasitemia to untreated control animals after seven days post infection.
For orientation: A flow cytometer gives signals particle by particle.

As for `C[C@@H](Oc1ccc(CNC(=O)c2cc(-n3cnc(C4(F)CC4)n3)c(N)nc2N)cc1)C(F)(F)F` [VIII, (R)-2,6-diamino-5-(3-(1-fluorocyclopropyl)-1H-1,2,4-triazol-1-yl)-N-(4-((1,1,1-trifluoropropan-2-yl)oxy)benzyl)nicotinamide], the IC50 was 0.02 µg/mL and 54 nM in experiment [1]; 0.031 µg/mL and 64 nM in experiment [2].
With `Nc1nc(N)c(-c2cnn(C(F)F)c2)cc1C(=O)NCc1ccc(OCC(F)(F)F)cc1F` [IX, 2,6-diamino-5-(1-(difluoromethyl)-1H-pyrazol-4-yl)-N-(2-fluoro-4-(2,2,2-trifluoroethoxy)benzyl)nicotinamide], the IC50 was 0.05 µg/mL and 113 nM in experiment [1]; 0.083 µg/mL and 160 nM in experiment [2].
For the compound `Nc1nc(N)c(-n2cnc(C3(C(F)(F)F)CC3)n2)cc1C(=O)NCc1ccc(OCC(F)(F)F)cc1` [VII, 2,6-diamino-N-(4-(2,2,2-trifluoroethoxy)benzyl)-5-(3-(1-(trifluoromethyl)cyclopropyl)-1H-1,2,4-triazol-1-yl)nicotinamide], the half-maximal inhibitory concentration (IC50) in experiment [1] is 0.016 µg/mL and 30 nM; in experiment [2] it was 0.021 µg/mL and 41 nM.
For the compound `C[C@@H](Oc1ccc(CNC(=O)c2cc(-n3cnc(CC(F)(F)F)n3)c(N)nc2N)cc1)C(F)(F)F` [VI, (R)-2,6-diamino-5-(3-(2,2,2-trifluoroethyl)-1H-1,2,4-triazol-1-yl)-N-(4-((1,1,1-trifluoropropan-2-yl)oxy)benzyl)nicotinamide], the IC50 in experiment [1] is 0.024 µg/mL and 48 nM; in experiment [2], 0.038 µg/mL and 75 nM.
Regarding `C[C@@H](Oc1ccc(CNC(=O)c2cc(-n3cnc(C(F)F)n3)c(N)nc2N)cc1)C(F)(F)F` [V, (R)-2,6-diamino-5-(3-(difluoromethyl)-1H-1,2,4-triazol-1-yl)-N-(4-((1,1,1-trifluoropropan-2-yl)oxy)benzyl)nicotinamide], the IC50 is 0.047 µg/mL and 99 nM in experiment [1]; 0.075 µg/mL and 160 nM in experiment [2]. Also, in experiment [3], the “ED90, daily dose that reduces parasitemia by 90% to untreated control animals” value was 6.2 mg/kg/day.
As for `C[C@@H](Oc1ccc(CNC(=O)c2cc(-c3cnn(C(F)F)c3)c(N)nc2N)cc1)C(F)(F)F` [compound II, (R)-2,6-diamino-5-(1-(difluoromethyl)-1H-pyrazol-4-yl)-N-(4-((1,1,1-trifluoropropan-2-yl)oxy)benzyl)nicotinamide], the concentration for half-maximal inhibition (IC50) is 0.02 µg/mL and 42 nM in experiment [1]; 0.025 µg/mL and 53 nM in experiment [2]. The “ED90, daily dose that reduces parasitemia by 90% to untreated control animals” value in experiment [3] was 5.0 mg/kg/day.
Regarding `Cc1nn(C(F)F)cc1-c1cc(C(=O)NCc2ccc(O[C@H](C)C(F)(F)F)cc2)c(N)nc1N` [III, (R)-2,6-diamino-5-(1-(difluoromethyl)-3-methyl-1H-pyrazol-4-yl)-N-(4-((1,1,1-trifluoropropan-2-yl)oxy)benzyl)nicotinamide], the IC50 in experiment [1] was 0.078 µg/mL and 162 nM; in experiment [2], 0.121 µg/mL and 249 nM.
For `C[C@@H](Oc1ccc(CNC(=O)c2cc(-n3cnc(C(F)(F)F)n3)c(N)nc2N)cc1)C(F)(F)F` [compound I, (R)-2,6-diamino-5-(3-(trifluoromethyl)-1H-1,2,4-triazol-1-yl)-N-(4-((1,1,1-trifluoropropan-2-yl)oxy)benzyl)nicotinamide], the 50% inhibitory concentration (IC50) in experiment [1] is 0.026 µg/mL; in experiment [2] it was 0.043 µg/mL and 30 nM. Also, the “ED90, daily dose that reduces parasitemia by 90% to untreated control animals” value in experiment [3] stood at 3.2 mg/kg/day.
As to `Nc1nc(N)c(-n2cnc(C(F)(F)F)n2)cc1C(=O)NCc1ccc(OCC(F)(F)F)cc1` [IV, 2,6-diamino-N-(4-(2,2,2-trifluoroethoxy)benzyl)-5-(3-(trifluoromethyl)-1H-1,2,4-triazol-1-yl)nicotinamide], the IC50 in experiment [1] is 125 nM; in experiment [2] it was 0.031 µg/mL and 171 nM.
